From patent US11400079B2, “Antibacterial monobactams” (University of Notre Dame du Lac, priority 2017, dated 2022)
≈ marks a conversion by molar mass, not a printed value. Where a name gives a salt, the structure may show the parent alone. Read-outs that look alike come from different tables or passages of the source.

How the values were obtained:
[1] = test system: strong β-lactamase producing strains of P. aeruginosa (ARC 3502 and ARC 3506); assay: Antibacterial activity, alone and in combination with tazobactam; assay type: cell-based; details: co-administration with tazobactam
Method: (§1) General Methods. All solvents and reagents were obtained from commercial sources and used without further purification unless otherwise stated. General methods of purification of compounds involved the use column chromatography with silica gel (230-400 mesh) purchased from Silicycle, Quebec City, Canada. The reactions were monitored by TLC on precoated Merck 60 F254 silica gel plates and visualized using UV light (254 nm).
(§2) Antibacterial assays were performed using iron depleted media as described previously (J. Med. Chem. 2017, 60, 4577).

Gram-negative bacteria = assay: Antibacterial activity against tested Gram-negative strains (summary in words); assay type: cell-based; details: tested strains of Gram-negative bacteria
Method: as §1, §2

[2] = test system: A. baumannii ATCC BAA 1793; assay: MIC antibacterial assay (iron depleted media); assay type: cell-based, Acinetobacter baumannii; details: Acinetobacter baumannii, BAA1793
Method: as §1, §2

A. baumannii ARC 5079 = assay: MIC antibacterial assay (iron depleted media); assay type: cell-based, Acinetobacter baumannii; details: Acinetobacter baumannii, ARC5079
Method: as §1, §2

A.baumannii ISR14-005 = assay: MIC antibacterial assay (iron depleted media); assay type: cell-based, Acinetobacter baumannii; details: Acinetobacter baumannii, ISR14005
Method: as §1, §2

[3] = test system: A. baumannii ATCC 17978-PNT-320; assay: MIC antibacterial assay (iron depleted media); assay type: cell-based, Acinetobacter baumannii; details: Acinetobacter baumannii, ATCC17978
Method: as §1, §2

P. aeruginosa ARC 3506 = assay: MIC antibacterial assay (iron depleted media); assay type: cell-based; details: Pseudomonas aeruginosa, ARC3506
Method: as §1, §2

P. aeruginosa ISR-14-003 = assay: MIC antibacterial assay (iron depleted media); assay type: cell-based; details: Pseudomonas aeruginosa, ISR14003
Method: as §1, §2

B. dolosa AU0018 = assay: MIC antibacterial assay (iron depleted media); assay type: cell-based; details: Burkholderia dolosa
Method: as §1, §2

P. aeruginosa KW799/wt = assay: MIC antibacterial assay (iron depleted media); assay type: cell-based; details: Pseudomonas aeruginosa
Method: as §1, §2

[4] = test system: Citrobacter freuendii ATCC 29063; assay: MIC antibacterial assay (iron depleted media); assay type: cell-based; details: ATCC29063
Method: as §1, §2

S. aureus SG 511 = assay: MIC antibacterial assay (iron depleted media); assay type: cell-based; details: Staphylococcus aureus, SG511
Method: as §1, §2

[5] = test system: Enterobacter aerogenes X816; assay: MIC antibacterial assay (iron depleted media); assay type: cell-based; details: Klebsiella aerogenes
Method: as §1, §2

Proteus mirabilis X235 = assay: MIC antibacterial assay (iron depleted media); assay type: cell-based
Method: as §1, §2

[6] = test system: Salmonella typhimurium ATCC13311; assay: MIC antibacterial assay (iron depleted media); assay type: cell-based; details: Salmonella enterica
Method: as §1, §2

[7] = test system: A. baumannii ATCC BAA 1797; assay: MIC antibacterial assay (iron depleted media); assay type: cell-based; details: Acinetobacter baumannii, BAA1797
Method: as §1, §2

A. baumannii ATCC 17961 = assay: MIC antibacterial assay (iron depleted media); assay type: cell-based; details: Acinetobacter baumannii, ATCC17961
Method: as §1, §2

P. aeruginosa ISR-14-004 = assay: MIC antibacterial assay (iron depleted media); assay type: cell-based; details: Pseudomonas aeruginosa, ISR14004
Method: as §1, §2

[8] = test system: A. baumannii ATCC17978-PNT-165; assay: MIC antibacterial assay (iron depleted media); assay type: cell-based; details: Acinetobacter baumannii
Method: as §1, §2

P. aeruginosa 01 = assay: MIC antibacterial assay (iron depleted media); assay type: cell-based; details: Pseudomonas aeruginosa
Method: as §1, §2

E. coli DCO = assay: MIC antibacterial assay (iron depleted media); assay type: cell-based; details: Escherichia coli
Method: as §1, §2

[9] = test system: β-lactamase producing strains of A. baumannii; assay: Antibacterial activity in combination with tazobactam; assay type: cell-based, Acinetobacter baumannii; details: combinations with tazobactam
Method: as §1, §2

[10] = test system: A. baumannii ATCC BAA 1800; assay: MIC antibacterial assay (iron depleted media); assay type: cell-based, Acinetobacter baumannii; details: Acinetobacter baumannii, BAA1800, MH2 broth with 160 μM bipyridyl added
Method: as §1, §2

P. aeruginosa ARC 3502 = assay: MIC antibacterial assay (iron depleted media); assay type: cell-based; details: Pseudomonas aeruginosa
Method: as §1, §2

[11] = A. baumannii ISR14-005 (clinical isolate), compound alone, MH2 broth with 160 μM bipyridyl added, read-out: MIC
[12] = A. baumannii ISR14-005 (clinical isolate), in combination with tazobactam, read-out: MIC (+tazo)
[13] = P. aeruginosa ISR-14-003 (clinical isolate), compound alone, MH2 broth with 160 μM bipyridyl added, read-out: MIC
[14] = P. aeruginosa ISR-14-003 (clinical isolate), in combination with tazobactam, read-out: MIC (+tazo)
[15] = B. dolosa AU0018, MH2 broth with 160 μM bipyridyl added, read-out: MIC
[16] = P. aeruginosa KW799/wt, MH2 broth with 160 μM bipyridyl added, read-out: MIC
[17] = Citrobacter freuendii ATCC 29063, MH2 broth with 160 μM bipyridyl added, read-out: MIC
[18] = S. aureus SG 511, MH2 broth with 160 μM bipyridyl added, read-out: MIC
[19] = Enterobacter aerogenes X816, MH2 broth with 160 μM bipyridyl added, read-out: MIC
[20] = Proteus mirabilis X235, MH2 broth with 160 μM bipyridyl added, read-out: MIC
[21] = Salmonella typhimurium ATCC13311, MH2 broth with 160 μM bipyridyl added, read-out: MIC
[22] = P. aeruginosa ISR-14-004 (clinical isolate), compound alone, MH2 broth with 160 μM bipyridyl added, read-out: MIC
[23] = P. aeruginosa ISR-14-004 (clinical isolate), in combination with tazobactam, read-out: MIC (+tazo)
[24] = P. aeruginosa 01, MH2 broth with 160 μM bipyridyl added, read-out: MIC
[25] = E. coli DCO, MH2 broth with 160 μM bipyridyl added, read-out: MIC

SMILES | effect of combination with tazobactam on activity (in words) [1] | antibacterial activity (in words) (Gram-negative bacteria) | MIC [3] | MIC [8] | MIC (A.baumannii ISR14-005; [11]) | MIC (A.baumannii ISR14-005; [12]) | MIC (P. aeruginosa ISR-14-003; [13]) | MIC (P. aeruginosa ISR-14-003; [14]) | MIC (B. dolosa AU0018; [15]) | MIC (P. aeruginosa KW799/wt; [16]) | MIC [4, 17] | MIC (S. aureus SG 511; [18]) | MIC [5, 19] | MIC (Proteus mirabilis X235; [20]) | MIC [6, 21] | MIC (P. aeruginosa ISR-14-004; [22]) | MIC (P. aeruginosa ISR-14-004; [23]) | MIC (P. aeruginosa 01; [24]) | MIC (E. coli DCO; [25]) | also measured
CC(C)(O/N=C(\C(=O)NC1C(=O)N(S(=O)(=O)O)[C@H]1CSCCN)c1cnc(N)s1)C(=O)O (mixture of isomers) [Compound 39, (E)-3-(2-(2-aminothiazol-5-yl)-2-(((2-carboxypropan-2-yl)oxy)imino)acetamido)-2-(((2-ammonioethyl)thio)methyl)-4-oxoazetidine-1-sulfonate, potassium salt] | no improvement | generally improved activity | > 50 µM | 50 µM | – | – | – | – | – | – | – | – | – | – | – | – | – | – | – | MIC [2]: 50 µM; MIC (A. baumannii ARC 5079): > 50 µM; MIC (A.baumannii ISR14-005): > 50 µM; MIC (P. aeruginosa ARC 3506): > 50 µM; MIC (P. aeruginosa ISR-14-003): > 50 µM; MIC (B. dolosa AU0018; AU0018): > 50 µM; MIC (P. aeruginosa KW799/wt; KW799/WT): > 50 µM; MIC ([4]; Citrobacter): 3 µM; MIC (S. aureus SG 511): > 50 µM; MIC ([5]; X816): 9.4 µM; MIC (Proteus mirabilis X235; Proteus mirabilis, X235): 3 µM; MIC [6]: 4.5 µM; MIC [7]: 50 µM; MIC (A. baumannii ATCC 17961): > 50 µM; MIC (P. aeruginosa ISR-14-004): > 50 µM; MIC (P. aeruginosa 01; 01): > 50 µM; MIC (E. coli DCO): 6 µM
CC(C)(O/N=C(\C(=O)NC1C(=O)N(S(=O)(=O)O)C1CSCCNC(=O)CN(CCCCNC(=O)c1cccc(O)c1O)C(=O)c1cccc(O)c1O)c1cnc(N)s1)C(=O)O (racemic) [Compound 42, (E)-2-(((1-(2-Aminothiazol-5-yl)-2-((2-(8-(2,3-dihydroxybenzoyl)-14-(2,3-dihydroxyphenyl)-6,14-dioxo-2-thia-5,8,13-triazatetradecyl)-4-oxo-1-sulfoazetidin-3-yl)amino)-2-oxoethylidene)amino)oxy)-2-methylpropanoic acid] | most improved activity | remarkably potent | 0.4 µM (≈ 0.364 µg/mL) | 0.4 µM (≈ 0.364 µg/mL) | > 50 µM | 25 µM | 1.6 µM (≈ 1.46 µg/mL) | 1.6 µM | > 50 µM | 0.4 µM (≈ 0.364 µg/mL) | 0.05 µM (≈ 0.0455 µg/mL) | > 50 µM | 0.075 µM (≈ 0.0683 µg/mL) | < 0.025 µM | 0.025 µM (≈ 0.0228 µg/mL) | 6 µM (≈ 5.47 µg/mL) | 3 µM | 0.4 µM (≈ 0.364 µg/mL) | < 0.025 µM | effect of combination with tazobactam on activity (in words) [9]: most enhancement of activity; MIC [10]: 0.1 to 0.4 µM (≈ 0.0911 to 0.364 µg/mL); MIC (P. aeruginosa ARC 3506; P. aeruginosa ARC 3506, compound alone, MH2 broth with 160 μM bipyridyl added, read-out: MIC): > 50 µM; MIC ([7]; A. baumannii ATCC BAA 1797, MH2 broth with 160 μM bipyridyl added, read-out: MIC): 0.4 µM (≈ 0.364 µg/mL); MIC (P. aeruginosa ARC 3502; ARC3502, compound alone, MH2 broth with 160 μM bipyridyl added, read-out: MIC): > 50 µM; MIC (P. aeruginosa ARC 3502; ARC3502, in combination with tazobactam, plus some growth at 50, clear between 1.6-50, read-out: MIC (+tazo)): 1.6 µM; MIC (A. baumannii ATCC 17961; A. baumannii ATCC 17961, MH2 broth with 160 μM bipyridyl added, read-out: MIC): 0.2 µM (≈ 0.182 µg/mL)
C[C@H]1[C@H](NC(=O)/C(=N\OC(C)(C)C(=O)O)c2csc(N)n2)C(=O)N1S(=O)(=O)O [Aztreonam, aztreonam, reference compound] | minimal effects | – | 50 µM (≈ 21.8 µg/mL) | 12.5 µM (≈ 5.44 µg/mL) | > 50 µM | 50 µM | 6 µM (≈ 2.61 µg/mL) | 3 µM | > 50 µM | 1.6 µM (≈ 0.697 µg/mL) | 0.1 µM (≈ 0.0435 µg/mL) | > 50 µM | 0.2 µM (≈ 0.0871 µg/mL) | 0.05 µM (≈ 0.0218 µg/mL) | 0.1 µM (≈ 0.0435 µg/mL) | 50 µM (≈ 21.8 µg/mL) | 0.4 µM | 3 µM (≈ 1.31 µg/mL) | 0.1 µM (≈ 0.0435 µg/mL) | MIC (A. baumannii ARC 5079; A. baumannii ARC 5079, compound alone, MH2 broth with 160 μM bipyridyl added, read-out: MIC): 25 to 50 µM (≈ 10.9 to 21.8 µg/mL)
